Measurements reported in ChEMBL document CHEMBL1148828, “Deoxycholic acid-derived tetraoxane antimalarials and antiproliferatives(1)” (J Med Chem, 2007).
Calls of active or inactive are those of the source. The rule behind the calls is not given here.

Assays:
[1] = tested on: Plasmodium falciparum; experiment: Antimalarial activity against Plasmodium falciparum W2; type: functional, organism-based
[2] = tested on: Plasmodium falciparum; experiment: Antimalarial activity against Plasmodium falciparum TM91C235; type: functional, organism-based
[3] = tested on: Mus musculus; experiment: Survival of Plasmodium berghei KBG 173 infected CD1 mice (Mus musculus) at 320 mg/kg/day; type: ADME, organism-based; conditions: in vivo
[4] = Metabolic stability in mouse liver microsomes; type: ADME, Microsome; conditions: liver microsomes
[5] = (§1) Metabolic stability in human liver microsomes; type: ADME, Microsome; conditions: liver microsomes
[6] = tested on: SF-268; experiment: Antiproliferative activity against human SF268 cells after 48 hrs; type: functional; conditions: SF-268, 48 h
[7] = (§2) Toxicity in Plasmodium berghei KBG 173 infected CD1 mice (Mus musculus); type: organism-based; conditions: CD1, mouse, in vivo
[8] = organism: Mus musculus; experiment: as §2; type: organism-based; conditions: mouse, in vivo
[9] = tested on: Mus musculus; experiment: Survival of Plasmodium berghei KBG 173 infected CD1 mice (Mus musculus) at 10 mg/kg/day; type: ADME, organism-based; conditions: in vivo
[10] = tested on: Mus musculus; experiment: Survival of Plasmodium berghei KBG 173 infected CD1 mice (Mus musculus) at 40 mg/kg/day; type: ADME, organism-based; conditions: in vivo
[11] = tested on: HCT-116; experiment: Antiproliferative activity against human HCT116 cells after 48 hrs; type: functional; conditions: HCT-116, 48 h; for CC50: read-out: LC50 (the source's name)
[12] = tested on: Mus musculus; experiment: Survival of Plasmodium berghei KBG 173 infected CD1 mice (Mus musculus) at 80 mg/kg/day; type: ADME, organism-based; conditions: in vivo
[13] = tested on: Plasmodium falciparum; experiment: Antimalarial activity against Plasmodium falciparum D6; type: functional, organism-based
[14] = tested on: Plasmodium berghei; experiment: Antimalarial activity as survivors after 31 days in Plasmodium berghei KBG173 infected CD1 mice (Mus musculus) at 320 mg/kg/day; type: functional, organism-based; conditions: KBG 173
[15] = tested on: HOP-62; experiment: Antiproliferative activity against human HOP62 cells after 48 hrs; type: functional; conditions: HOP-62, 48 h
[16] = tested on: Plasmodium berghei; experiment: Antimalarial activity as survivors after 31 days in Plasmodium berghei KBG173 infected CD1 mice (Mus musculus) at 10 mg/kg/day; type: functional, organism-based; conditions: KBG 173
[17] = tested on: NCI; experiment: Growth inhibition of human NCI DTP 60 cells; type: functional
[18] = tested on: LOX IMVI; experiment: Antiproliferative activity against human LOX IMVI cells after 48 hrs; type: functional
[19] = tested on: COLO 205; experiment: Antiproliferative activity against human COLO205 cells after 48 hrs; type: functional
[20] = tested on: T47D; experiment: Antiproliferative activity against human T47D cells after 48 hrs; type: functional
[21] = tested on: 786-0; experiment: Antiproliferative activity against human 786-0 cells after 48 hrs; type: functional; conditions: Homo sapiens, 786-0, 48 h
[22] = tested on: HCC 2998; experiment: Antiproliferative activity against human HCC2998 cells after 48 hrs; type: functional; conditions: HCC 2998, 48 h
[23] = tested on: U-251; experiment: Antiproliferative activity against human U251 cells after 48 hrs; type: functional; conditions: U-251, 48 h
[24] = tested on: M14; experiment: Antiproliferative activity against human M14 cells after 48 hrs; type: functional; conditions: M14, 48 h, read-out: LC50 (the source's name)
[25] = tested on: Mus musculus; experiment: Survival of Plasmodium berghei KBG 173 infected CD1 mice (Mus musculus) at 160 mg/kg/day; type: ADME, organism-based; conditions: in vivo
[26] = tested on: HCT-15; experiment: Antiproliferative activity against human HCT15 cells after 48 hrs; type: functional; conditions: HCT-15, 48 h
[27] = tested on: CCRF-CEM; experiment: Antiproliferative activity against human CCRF-CEM cells after 48 hrs; type: functional
[28] = tested on: Liver microsomes; experiment: as §1; type: ADME, Microsome; conditions: microsomes
[29] = tested on: NCI-H322M; experiment: Antiproliferative activity against human NCI-H322M cells after 48 hrs; type: functional
[30] = tested on: OVCAR-3; experiment: Antiproliferative activity against human OVCAR-3 cells after 48 hrs; type: functional; conditions: OVCAR-3, 48 h
[31] = tested on: CAKI-1; experiment: Antiproliferative activity against human CAKI1 cells after 48 hrs; type: functional; conditions: CAKI-1, 48 h
[32] = tested on: Mus musculus; experiment: Survival of Plasmodium berghei KBG 173 infected CD1 mice (Mus musculus) at 20 mg/kg/day; type: ADME, organism-based; conditions: in vivo
[33] = tested on: MDA-MB-435; experiment: Antiproliferative activity against human MDA-MB-435 cells after 48 hrs; type: functional
[34] = Plasmodium falciparum, TM91C235
[35] = read-out: LC50 (the source's name)

## CC(=O)O[C@H]1C[C@H]2[C@@H]([C@H](OC(C)=O)C[C@@H]3CC4(CC[C@@]32C)OOC2(CCCCC2)OO4)[C@@H]2CC[C@H]([C@H](C)CCC(=O)NCCN(C)C)[C@@]12C
[1]; Plasmodium falciparum, W2
  IC50: 0.0145 µM
  IC90: 0.0451 µM
[2]; [34]
  IC50: 0.0196 µM
  IC90: 0.0379 µM
[3]
  Survival: 31 days
[4]
  half-life: 40 min
[5]
  half-life: 40 min
[6]
  GI50: 0.785 µM
  TGI: 2.25 µM
[6]; [35]
  CC50: 5.35 µM
[7]
  MTD: > 960 mg/kg
[8]
  MCD: <= 40 mg/kg/day
[9]
  Survival: 8 days
[10]
  Survival: 21 days
[11]
  GI50: 0.0831 µM
  TGI: 1.69 µM
  CC50: 4.62 µM
[12]
  Survival: 25 days
[13]; Plasmodium falciparum, D6
  IC50: 0.0282 µM
  IC90: 0.0451 µM
[14]
  Activity: Active
[15]
  GI50: < 0.01 µM
  LC50: 0.083 µM
  TGI: 0.0166 µM
[16]
  Activity: inactive
[17]; Homo sapiens, NCI
  GI50: < 0.01 µM
[18]; Homo sapiens, LOX IMVI, 48 h
  GI50: < 0.01 µM
  LC50 (concentration killing 50% of cells): 0.0688 µM
  TGI: 0.0224 µM

## CC(=O)O[C@H]1C[C@H]2[C@@H](CC[C@@H]3CC4(CC[C@@]32C)OOC2(CCC(C)CC2)OO4)[C@@H]2CC[C@H]([C@H](C)CCC(=O)NCCN(C)C)[C@@]12C (stereo in doubt; 16)
[1]
  IC50: 0.0168 µM
  IC90: 0.0198 µM
[2]
  IC50: 0.0147 µM
  IC90: 0.0243 µM
[4]
  half-life: > 120 min
[5]
  half-life: 110 min
[19]
  GI: 0.083 µM
[19]; Homo sapiens, COLO 205, 48 h
  TGI: 0.02 µM
[19]; Homo sapiens, COLO 205, 48 h, read-out: LC50 (the source's name)
  CC50: 0.49 µM
[10]
  Survival: 9 days
[11]
  GI50: 0.009 µM
  TGI: 0.021 µM
  CC50: 0.047 µM
[20]
  GI50: 0.13 µM
  TGI: 0.41 µM
[21]
  GI50: 0.06 µM
  TGI: 0.15 µM
[21]; [35]
  CC50: 0.39 µM
[13]
  IC50: 0.0128 µM
  IC90: 0.0187 µM
[22]
  GI50: 0.077 µM
  TGI: 0.21 µM
[22]; [35]
  CC50: 0.98 µM
[23]
  GI50: 0.026 µM
  TGI: 0.087 µM
[24]
  CC50: 0.46 µM
[15]
  GI50: 0.054 µM
  LC50: 1.16 µM
  TGI: 0.23 µM
[25]
  Survival: 29 days
[26]
  GI50: 0.094 µM
[18]
  LC50 (concentration killing 50% of cells): 0.022 µM
[18]; Homo sapiens, LOX IMVI, 48 h
  GI50: < 0.005 µM
  TGI: 0.0074 µM
[27]
  GI: 0.056 µM
[27]; Homo sapiens, CCRF-CEM, 48 h
  LC50 (concentration killing 50% of cells): 0.5 µM
  TGI: 0.17 µM

## CC(=O)O[C@H]1C[C@H]2[C@@H]([C@H](OC(C)=O)C[C@@H]3CC4(CC[C@@]32C)OOC2(CCC(C)CC2)OO4)[C@@H]2CC[C@H]([C@H](C)CCC(=O)NCCN(C)C)[C@@]12C (stereo in doubt; 22)
[1]
  IC50: 0.0167 µM
  IC90: 0.0248 µM
[2]
  IC50: 0.0122 µM
  IC90: 0.0185 µM
[4]
  half-life: 77 min
[28]
  t1/2: 42 min
[29]
  GI50: 1.46 µM
  TGI: 2.79 µM
[29]; [35]
  CC50: 5.34 µM
[8]
  MCD: 40 mg/kg/day
[30]
  GI50: 1.19 µM
  TGI: 2.47 µM
[30]; [35]
  CC50: 5.11 µM
[10]
  Survival: 19 days
[31]
  GI50: 1.37 µM
  TGI: 2.69 µM
[31]; [35]
  CC50: 5.29 µM
[32]
  Survival: 9 days
[33]
  GI50: 1.53 µM
  TGI: 2.91 µM
[33]; Homo sapiens, MDA-MB-435, 48 h, read-out: LC50 (the source's name)
  CC50: 5.52 µM
[13]
  IC50: 0.0186 µM
  IC90: 0.0278 µM
[17]
  GI50: 0.18 µM
[18]
  GI50: 0.183 µM
[27]
  GI50: 0.258 µM
  TGI: 0.725 µM
